We go through four compounds from PMC9231250, “Cardio- and Neurotoxicity of Selected Anti-COVID-19 Drugs” (Pharmaceuticals, 2022).

Data set [1] deals with hiPSC-CMs.
Data set [2] relates to hiPSC-NEURs.
In another data set the test system is COVID-19 patients. Conditions: cited from earlier work.
Data set [3] concerns hiPSC-NEURs. The data set can be described thus: Neurotoxicity screen, CellTiter-Glo cell viability in hiPSC-derived neurons. The note with it: for IC50: Homo sapiens, Neuron. (In general: ATP-based viability assays read luminescence as a measure of living cells.)
Data set [4] concerns hiPSC-CMs. The data set can be described thus: Cardiotoxicity screen, CellTiter-Glo cell viability in hiPSC-derived cardiomyocytes. Conditions: 24 h; for IC50: Homo sapiens, Cardiomyocyte, read-out: cardiotoxicity IC50; for cardiotoxicity (in words): hiPSC-CMs, CellTiter-Glo.
The conditions of data set [5]: following the clinical dosing regimen; cited from earlier work.
For data set [6], the system named is Vero (African monkey epithelial) cells. The note with it: cited from earlier work.
In data set [7] the test system is Huh7.5 (human epithelial-like) cells. Conditions: Huh7.5 cells; cited from earlier work.
The mark [8] stands for this setting: 24 h, read-out: neurotoxicity IC50.
The mark [9] stands for this setting: hiPSC-NEURs, 24 h, CellTiter-Glo.

Counter-ions that a name gives are not always drawn. Like-named read-outs stand apart in the source and are kept apart here.

Regarding `CCOC(=O)c1c(CSc2ccccc2)n(C)c2cc(Br)c(O)c(CN(C)C)c12` [arbidol, arbidol hydrochloride], the “cardiotoxicity (in words)” value with hiPSC-CMs [1] was “Cardiotoxic”. Moreover, the “neurotoxicity (in words)” value in the data set on hiPSC-NEURs [2] is “Neurotoxic”. Moreover, the in-hospital mortality entry in the data set on COVID-19 patients (COVID-19 patients, 200 mg three times per day) is listed as “increased risk of in-hospital mortality”. The IC50 is 42 µM in the data set with hiPSC-NEURs [3] (setting [8]) and 61 µM in the data set on hiPSC-CMs [4].
In the case of `CCC(CC)COC(=O)[C@H](C)N[P@](=O)(OC[C@H]1O[C@@](C#N)(c2ccc3c(N)ncnn23)[C@H](O)[C@@H]1O)Oc1ccccc1` [remdesivir], the “plasma concentration, lower end” value in data set [5] is listed as at least 16.7 µM. The “plasma concentration, upper end” value in data set [5] is at most 1700 µM. The cell toxicity entry in data set [6] and in data set [7] was “did not observe cell toxicity” throughout. In the data set on COVID-19 patients, the “adverse effects on the cardiovascular system” value is “hypotension, atrial fibrillation rhythm, and sinus bradycardia”. For the same compound, the IC50 in the data set on hiPSC-NEURs [3] (setting [8]) turned out to be 41 µM; with hiPSC-NEURs [3] (read-out: neurotoxicity, individual variability between individuals (lowest)) it was 3 µM; in the data set on hiPSC-CMs [4] it was 51 µM. Further, the “neurotoxicity (in words)” value in the data set on hiPSC-NEURs [3] (setting [9]) is reported as “Neurotoxic”. Also, in the data set with hiPSC-CMs [4], the “cardiotoxicity (in words)” value was “Cardiotoxic”.
As to `CCN(CCO)CCCC(C)Nc1ccnc2cc(Cl)ccc12` (stereo not shown) [hydroxychloroquine], the cell toxicity result in data set [6] and in data set [7] was “observe toxicity” each time. Besides, the IC50 with hiPSC-NEURs [3] (setting [8]) amounted to 52 µM. Further, the “neurotoxicity (in words)” value is listed as “toxicity in neurons” in the data set with hiPSC-NEURs [3] (setting [9]) and “Neurotoxic” in the data set with hiPSC-NEURs [3] (hiPSC-NEURs, 24 h, CellTiter-Glo, listed as Hydroxychloroquine). In addition, in the data set on hiPSC-NEURs [3] (hiPSC-NEURs, combined with 5 µM or 10 µM azithromycin, 24 h, CellTiter-Glo), the “further neurotoxicity on addition of azithromycin” value is reported as “did not induce further neurotoxicity”. In addition, the “cardiotoxicity (in words)” value in the data set on hiPSC-CMs [4] was “not cardiomyocytes”.
Take `CCN(CC)CCCC(C)Nc1ccnc2cc(Cl)ccc12` (stereo not shown) [chloroquine]: in the data set on hiPSC-NEURs [2], the “further neurotoxicity on addition of azithromycin” value is reported as “did not induce further neurotoxicity” and the “neurotoxicity (in words)” value was “Neurotoxic”. For the same compound, the IC50 in the data set with hiPSC-NEURs [3] (setting [8]) amounted to 71 µM.
